Experimental data reported in PubChem BioAssay AID1845208 (Molecular Pharmacology Branch, DTP, NCI, 2023).

Test system: NCI-H196 SCLC complex tumor spheroid viability
Assay: Anticancer human tumor NCI-H196 cell line growth inhibition;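 also: spheroids exposed to compounds for 7 days before readout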;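 as to viability, T/C: 100% = DMSO vehicle control wells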
Conditions: for IC50: curve of first compound; for viability, T/C: stronger effect = lower value
From the text: Multicellular complex tumor spheroid response to DNA repair inhibitors in combination with DNA-damaging drugs
This study explores the anticancer activities of DNA-damaging drugs and inhibitors of DNA damage repair, both as single agents and in combinations. Complex tumor spheroids comprised of malignant cells, endothelial cells and mesenchymal stem cells served as an in vitro model for human solid tumors. This model system incorporates physiologically relevant features and patient-derived or established malignant cell lines with clinically relevant genetic alterations from many tumor types. Twenty-six patient-derived or established malignant cell lines were evaluated representing sarcoma, melanoma, small cell lung cancer (SCLC), non-small cell lung cancer (NSCLC), as well as bladder, ovarian and pancreatic cancers. The concentration ranges selected for each drug and investigational agent were based upon clinically achievable concentrations if the clinical Cmax of the agent was known.
Compounds. The drugs and compounds olaparib (NSC753686), talazoparib (NSC767125), berzosertib (NSC777718), elimusertib (NSC800525), nedisertib (NSC802822), VX-984 (NSC792969), AZD-1390 (NSC803789), temozolomide (NSC362856), topotecan (NSC609699), trabectedin (NSC813783), staurosporine (NSC755774), and gemcitabine (NSC613327) were obtained from the National Cancer Institute (NCI) Developmental Therapeutics Program Chemical Repository. The FDA-approved anticancer drug set is available from the Developmental Therapeutics Program at https://dtp.cancer.gov/organization/dscb/obtaining/available_plates.htm. […] The stock solutions were prepared in dimethyl sulfoxide (DMSO, Sigma-Aldrich, St. Louis, MO, cat. D2650) at 400-fold the tested concentration and stored at -70 degrees C. Prior to their use, the stock solutions were diluted in fresh medium and the final DMSO concentration in the assay was 0.25% (v/v). All drugs and investigational agents were tested over a range starting from a high concentration at or near the clinical Cmax and decreasing in half-log increments. If the clinical Cmax for an agent had not been determined, the highest concentration tested was 10 microM.
Cell Lines. The patient-derived cancer cell (PDC) lines: 156681-154-R-J1-PDC, 283228-195-R-J1-PDC, 287954-098-R-J1-PDC, 292921-168-R-J2-PDC, 349418-098-R-PDC, 425362-245-T-J1-PDC, 556581-035-R-J1-PDC, and BL0293-F563-PDC were received from the NCI Patient-Derived Models Repository (PDMR, https://pdmr.cancer.gov). The established cell lines HS-SY-2 (RRID:CVCL_8719), MPNST, and SYO-1 (RRID:CVCL_7146) were obtained from the Sloan Kettering Institute. The alveolar soft parts sarcoma cell line ASPS-1 (RRID:CVCL_S738) was established at the NCI and grown from internal seed stocks. The following established cell lines were purchased from the American Type Culture Collection (ATCC, Manassas, VA): G-401 (ATCC, cat. CRL-1441, RRID:CVCL_0270), SW982 (ATCC, cat. HTB-93, RRID:CVCL_1734), VA-ES-BJ (ATCC, cat. CRL-2138, RRID:CVCL_1785), NCI-H719 (ATCC, cat. CRL-5837, RRID:CVCL_1582), NCI-H196 (ATCC, cat. CRL-5823, RRID:CVCL_1509), NCI-H841 (ATCC, cat. CRL-5845, RRID:CVCL_1595), NCI-H1618 (ATCC, cat. CRL-5879, RRID:CVCL_1480), NCI-H1876 (ATCC, cat. CRL-5902, RRID:CVCL_1503), DMS 114 (ATCC, cat. CRL-2066; RRID:CVCL_1174), NCI-H211 (ATCC, cat. CRL-5824; RRID:CVCL_1529), and SW 1271 (ATCC, cat. CRL-2177, RRID:CVCL_1716). The small cell lung cancer cell line COR-L88 was purchased from Sigma-Aldrich (cat. 92031917-1VL, RRID:CVCL_1141). The non-small cell lung cancer cell lines NCI-H226 (RRID:CVCL_1544) and NCI-H322M (RRID:CVCL_1557) were established at the NCI and grown from internal seed stocks. Pooled donor human umbilical vein endothelial cells (HUVEC, Lonza, cat. CC-2519) and human mesenchymal stem cells (hMSC, Lonza, cat. PT-2501) were purchased from Lonza (Walkersville, MD).
Cell Culture. All cells were maintained in an incubator at 37 degrees C and 5% CO2 with 95% humidity. […]

[1] = second compound 0.003 µM, first compound 0.00949 µM
[2] = second compound 0.003 µM, first compound 0.03 µM
[3] = second compound 0.003 µM, first compound 0.0949 µM
[4] = second compound 0.003 µM, first compound 0.3 µM
[5] = second compound 0.003 µM, first compound 0.949 µM
[6] = second compound 0.003 µM, first compound 3 µM
[7] = second compound 0.00949 µM, first compound 0.00949 µM
[8] = second compound 0.00949 µM, first compound 0.03 µM
[9] = second compound 0.00949 µM, first compound 0.0949 µM
[10] = second compound 0.00949 µM, first compound 0.3 µM
[11] = second compound 0.00949 µM, first compound 0.949 µM
[12] = second compound 0.00949 µM, first compound 3 µM
[13] = second compound 0.03 µM, first compound 0.00949 µM
[14] = second compound 0.03 µM, first compound 0.03 µM
[15] = second compound 0.03 µM, first compound 0.0949 µM
[16] = second compound 0.03 µM, first compound 0.3 µM
[17] = second compound 0.03 µM, first compound 0.949 µM
[18] = second compound 0.03 µM, first compound 3 µM
[19] = second compound 0.0949 µM, first compound 0.00949 µM
[20] = second compound 0.0949 µM, first compound 0.03 µM
[21] = second compound 0.0949 µM, first compound 0.0949 µM
[22] = second compound 0.0949 µM, first compound 0.3 µM
[23] = second compound 0.0949 µM, first compound 0.949 µM
[24] = second compound 0.0949 µM, first compound 3 µM
[25] = second compound 0.3 µM, first compound 0.00949 µM
[26] = second compound 0.3 µM, first compound 0.03 µM
[27] = second compound 0.3 µM, first compound 0.0949 µM
[28] = second compound 0.3 µM, first compound 0.3 µM
[29] = second compound 0.3 µM, first compound 0.949 µM
[30] = second compound 0.3 µM, first compound 3 µM

SMILES | IC50 (second compound 0.003 µM) [µM] | IC50 (second compound 0.00949 µM) [µM] | IC50 (second compound 0.03 µM) [µM] | IC50 (second compound 0.0949 µM) [µM] | IC50 (second compound 0.3 µM) [µM] | viability, T/C [3] [%] | viability, T/C [4] [%] | viability, T/C [5] [%] | viability, T/C [6] [%] | viability, T/C [9] [%] | viability, T/C [10] [%] | viability, T/C [11] [%] | viability, T/C [12] [%] | viability, T/C [15] [%] | viability, T/C [16] [%] | viability, T/C [17] [%] | viability, T/C [18] [%] | viability, T/C [21] [%] | viability, T/C [22] [%] | viability, T/C [23] [%] | further results
CNCc1ccc(-c2cc(-c3nc(-c4ccc(S(=O)(=O)C(C)C)cc4)cnc3N)on2)cc1 + CC[C@@]1(O)C(=O)OCc2c1cc1n(c2=O)Cc2cc3c(CN(C)C)c(O)ccc3nc2-1 | > 3 | > 3 | > 3 | > 3 | > 3 | 101 | 94.3 | 86.2 | 76.1 | 112 | 95.7 | 84.1 | 78.7 | 101 | 93.2 | 76.9 | 81.6 | 121 | 88.7 | 89.3 | viability, T/C [1]: 101%; viability, T/C [2]: 102%; viability, T/C [7]: 98.5%; viability, T/C [8]: 99%; viability, T/C [13]: 101%; viability, T/C [14]: 101%; viability, T/C [19]: 99.9%; viability, T/C [20]: 104%; viability, T/C [24]: 75.1%; viability, T/C [25]: 94.9%; viability, T/C [26]: 93.7%; viability, T/C [27]: 92.7%; viability, T/C [28]: 75%; viability, T/C [29]: 65%; viability, T/C [30]: 57.1%
Cc1sc2c(c1C)C(c1ccc(Cl)cc1)=NC(CC(=O)Nc1ccc(O)cc1)c1nnc(C)n1-2 (stereo not given) + CC[C@@]1(O)C(=O)OCc2c1cc1n(c2=O)Cc2cc3c(CN(C)C)c(O)ccc3nc2-1 | 0.613 | 0.688 | 0.656 | 0.755 | 0.373 | 86.2 | 70.2 | 37.8 | 19.2 | 86.8 | 76.6 | 39.1 | 23.7 | 80.3 | 64.7 | 41.8 | 29.9 | 88.1 | 67.4 | 46 | viability, T/C [1]: 98.8%; viability, T/C [2]: 101%; viability, T/C [7]: 98.7%; viability, T/C [8]: 96.1%; viability, T/C [13]: 96.1%; viability, T/C [14]: 84%; viability, T/C [19]: 98%; viability, T/C [20]: 93.6%; viability, T/C [24]: 32.3%; viability, T/C [25]: 92.3%; viability, T/C [26]: 92.8%; viability, T/C [27]: 78.9%; viability, T/C [28]: 49.8%; viability, T/C [29]: 40.1%; viability, T/C [30]: 24.4%
Cn1ncnc1[C@H]1c2n[nH]c(=O)c3cc(F)cc(c23)N[C@@H]1c1ccc(F)cc1 + CC[C@@]1(O)C(=O)OCc2c1cc1n(c2=O)Cc2cc3c(CN(C)C)c(O)ccc3nc2-1 | > 3 | > 3 | > 3 | > 3 | > 3 | 96.9 | 95.3 | 95 | 98.2 | 95.5 | 105 | 104 | 102 | 113 | 108 | 104 | 97.4 | 105 | 110 | 106 | viability, T/C [1]: 97.6%; viability, T/C [2]: 90.2%; viability, T/C [7]: 96.5%; viability, T/C [8]: 87.7%; viability, T/C [13]: 104%; viability, T/C [14]: 110%; viability, T/C [19]: 108%; viability, T/C [20]: 108%; viability, T/C [24]: 96.8%; viability, T/C [25]: 99.1%; viability, T/C [26]: 99.9%; viability, T/C [27]: 91%; viability, T/C [28]: 95.3%; viability, T/C [29]: 91.2%; viability, T/C [30]: 82.5%
O=C(c1cc(Cc2n[nH]c(=O)c3ccccc23)ccc1F)N1CCN(C(=O)C2CC2)CC1 + CC[C@@]1(O)C(=O)OCc2c1cc1n(c2=O)Cc2cc3c(CN(C)C)c(O)ccc3nc2-1 | > 30 | > 30 | > 30 | > 30 | > 30 | 95.4 | 95.2 | 88.3 | 88.2 | 97.7 | 91.3 | 98.7 | 95.9 | 100 | 98 | 101 | 103 | 96.3 | 107 | 99.6 | viability, T/C (second compound 0.003 µM, first compound 9.49 µM): 88.6%; viability, T/C (second compound 0.003 µM, first compound 30 µM): 85.6%; viability, T/C (second compound 0.00949 µM, first compound 9.49 µM): 94.3%; viability, T/C (second compound 0.00949 µM, first compound 30 µM): 96.6%; viability, T/C (second compound 0.03 µM, first compound 9.49 µM): 98.2%; viability, T/C (second compound 0.03 µM, first compound 30 µM): 92%; viability, T/C [24]: 99.6%; viability, T/C (second compound 0.0949 µM, first compound 9.49 µM): 102%; viability, T/C (second compound 0.0949 µM, first compound 30 µM): 97.2%; viability, T/C [27]: 86.8%; viability, T/C [28]: 90.9%; viability, T/C [29]: 88.4%; viability, T/C [30]: 93.9%; viability, T/C (second compound 0.3 µM, first compound 9.49 µM): 82.5%; viability, T/C (second compound 0.3 µM, first compound 30 µM): 83.1%
